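Grown in 96-well plates, cells were treated for 48 hours with each compound at five concentrations. Insufficient inhibition: endpoint recorded as highest concentration tested. GI50 marks 50% less growth. The concentration for full growth arrest is given as TGI.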
Tests used:
Test in all cases: growth of human tumour cells (NCI), 48 h
XF 498 CNS = test system: XF 498 CNS
SNB-78 CNS = test system: SNB-78 CNS
DMS 273 small cell lung = test system: DMS 273 small cell lung
M19-MEL melanoma = test system: M19-MEL melanoma
SK-MEL-2 melanoma = test system: SK-MEL-2 melanoma
OVCAR-5 ovarian = test system: OVCAR-5 ovarian
DLD-1 colon = test system: DLD-1 colon
LXFL 529 NSCLC = test system: LXFL 529 NSCLC
DMS 114 small cell lung = test system: DMS 114 small cell lung
SW-620 colon = test system: SW-620 colon
KM20L2 colon = test system: KM20L2 colon
HOP-18 NSCLC = test system: HOP-18 NSCLC
NCI-H460 lung = test system: NCI-H460 lung
RXF-631 renal = test system: RXF-631 renal
MCF7 breast = test system: MCF7 breast
T-47D breast = test system: T-47D breast

**Q.** Which results are given for `COc1ccc(/C(Cl)=C(\C=N/O)c2ccc(OC)c(OC)c2)cc1OC`?
**A.** TGI (XF 498 CNS): > 100 µM; TGI (SNB-78 CNS): > 100 µM; TGI (DMS 273 small cell lung): > 100 µM; TGI (M19-MEL melanoma): > 100 µM; TGI (SK-MEL-2 melanoma): > 100 µM; TGI (OVCAR-5 ovarian): > 100 µM; TGI (DLD-1 colon): > 100 µM; TGI (LXFL 529 NSCLC): > 100 µM; TGI (DMS 114 small cell lung): > 100 µM; TGI (SW-620 colon): > 100 µM; TGI (KM20L2 colon): > 100 µM; TGI (HOP-18 NSCLC): > 100 µM; TGI (NCI-H460 lung): > 100 µM

**Q.** With `Cc1cc(/C=C/c2cc[n+](C)c3ccccc23)c(O)c2ncccc12` as the molecule, how does the TGI (SNB-78 CNS) read?
**A.** Its TGI is 27.1 µM.

**Q.** And the TGI (DMS 273 small cell lung)?
**A.** The TGI was 10.4 µM.

**Q.** And the TGI (M19-MEL melanoma)?
**A.** The TGI was 8.52 µM.

**Q.** What about the TGI (SK-MEL-2 melanoma) of the same molecule?
**A.** Its TGI is 18.8 µM.

**Q.** And the TGI (OVCAR-5 ovarian)?
**A.** The TGI was 16 µM.

**Q.** What about the TGI (DLD-1 colon) of the same molecule?
**A.** Its TGI is 22.5 µM.

**Q.** And the TGI (LXFL 529 NSCLC)?
**A.** The TGI was 16 µM.

**Q.** And the TGI (DMS 114 small cell lung)?
**A.** The TGI was 1.8 µM.

**Q.** What about the TGI (SW-620 colon) of the same molecule?
**A.** The TGI was 19.3 µM.

**Q.** What about the TGI (KM20L2 colon) of the same molecule?
**A.** Its TGI is 20 µM.

**Q.** What about the TGI (HOP-18 NSCLC) of the same molecule?
**A.** The TGI was 11.9 µM.

**Q.** What about the TGI (NCI-H460 lung) of the same molecule?
**A.** Its TGI is 16.7 µM.

**Q.** `COc1ccccc1-c1cc(=O)c2cc3c(cc2[nH]1)OCO3` was tested. Which TGI (XF 498 CNS) did it give?
**A.** The TGI was 75.5 µM.

**Q.** And the TGI (DMS 273 small cell lung)?
**A.** The TGI was greater than 100 µM.

**Q.** What about the TGI (M19-MEL melanoma) of the same molecule?
**A.** Its TGI is greater than 100 µM.

**Q.** And the TGI (SK-MEL-2 melanoma)?
**A.** Its TGI is greater than 100 µM.

**Q.** What about the TGI (DLD-1 colon) of the same molecule?
**A.** The TGI was greater than 100 µM.

**Q.** What about the TGI (LXFL 529 NSCLC) of the same molecule?
**A.** The TGI was greater than 100 µM.

**Q.** And the GI50 (DMS 114 small cell lung)?
**A.** Its GI50 is 25 µM.

**Q.** What about the TGI (DMS 114 small cell lung) of the same molecule?
**A.** The TGI was greater than 100 µM.

**Q.** What about the TGI (SW-620 colon) of the same molecule?
**A.** Its TGI is greater than 100 µM.

**Q.** What about the GI50 (KM20L2 colon) of the same molecule?
**A.** The GI50 was 18.7 µM.

**Q.** What about the TGI (KM20L2 colon) of the same molecule?
**A.** The TGI was 37.5 µM.

**Q.** And the TGI (NCI-H460 lung)?
**A.** The TGI was greater than 100 µM.

**Q.** Which results are given for `CC(C)N=C(N)NC#N`?
**A.** TGI (XF 498 CNS): > 100 µM; TGI (SNB-78 CNS): > 100 µM; TGI (M19-MEL melanoma): > 100 µM; TGI (SK-MEL-2 melanoma): > 100 µM; TGI (OVCAR-5 ovarian): > 100 µM; TGI (DLD-1 colon): > 100 µM; TGI (LXFL 529 NSCLC): > 100 µM; TGI (DMS 114 small cell lung): > 100 µM; TGI (SW-620 colon): > 100 µM; TGI (KM20L2 colon): > 100 µM; TGI (HOP-18 NSCLC): > 100 µM; TGI (NCI-H460 lung): > 100 µM

**Q.** What does the source list for `Cc1c(N2CCN(C)CC2)nc2ccc(Cl)cc2c1-c1ccccc1`?
**A.** TGI (SNB-78 CNS): 39.8 µM; TGI (DMS 273 small cell lung): 32.1 µM; TGI (SK-MEL-2 melanoma): 36.5 µM; TGI (LXFL 529 NSCLC): 31.7 µM; TGI (DMS 114 small cell lung): 31 µM; TGI (SW-620 colon): 34.6 µM; TGI (KM20L2 colon): 31.2 µM; TGI (NCI-H460 lung): 33.4 µM

**Q.** Which TGI (SNB-78 CNS) does the source give for `CSc1nc(NC2OC(COC(C)=O)C(OC(C)=O)C(OC(C)=O)C2OC(C)=O)c2c(n1)OCC2=O` (stereo not given) here?
**A.** Its TGI is greater than 100 µM.

**Q.** What about the TGI (M19-MEL melanoma) of the same molecule?
**A.** Its TGI is greater than 100 µM.

**Q.** And the TGI (SK-MEL-2 melanoma)?
**A.** The TGI was greater than 100 µM.

**Q.** What about the TGI (OVCAR-5 ovarian) of the same molecule?
**A.** The TGI was greater than 100 µM.

**Q.** And the TGI (DLD-1 colon)?
**A.** Its TGI is greater than 100 µM.

**Q.** What about the TGI (LXFL 529 NSCLC) of the same molecule?
**A.** The TGI was greater than 100 µM.

**Q.** What about the TGI (DMS 114 small cell lung) of the same molecule?
**A.** The TGI was greater than 100 µM.

**Q.** And the TGI (SW-620 colon)?
**A.** The TGI was greater than 100 µM.

**Q.** And the TGI (KM20L2 colon)?
**A.** Its TGI is greater than 100 µM.

**Q.** What about the TGI (HOP-18 NSCLC) of the same molecule?
**A.** The TGI was greater than 100 µM.

**Q.** What about the TGI (RXF-631 renal) of the same molecule?
**A.** Its TGI is greater than 100 µM.

**Q.** And the TGI (NCI-H460 lung)?
**A.** Its TGI is greater than 100 µM.

**Q.** What does the source list for `CC1=C(O)C(=O)C2C(=O)C1C1Cc3ccccc3C21` (stereo not given)?
**A.** TGI (XF 498 CNS): > 100 µM; TGI (SNB-78 CNS): > 100 µM; TGI (DMS 273 small cell lung): > 100 µM; TGI (M19-MEL melanoma): > 100 µM; TGI (SK-MEL-2 melanoma): > 100 µM; TGI (OVCAR-5 ovarian): > 100 µM; TGI (DLD-1 colon): > 100 µM; TGI (LXFL 529 NSCLC): > 100 µM; TGI (SW-620 colon): > 100 µM; TGI (RXF-631 renal): > 100 µM

**Q.** What does the source list for `COc1cc(-c2cc(=O)c3c(O)c(CC=C(C)C)c(O)cc3o2)ccc1O`?
**A.** TGI (SK-MEL-2 melanoma): > 50 µM; TGI (OVCAR-5 ovarian): > 50 µM; TGI (MCF7 breast): > 50 µM; TGI (SW-620 colon): > 50 µM; TGI (T-47D breast): 40.8 µM; TGI (NCI-H460 lung): > 50 µM

— PubChem BioAssay (NCI)
